Patent EP0153845A2, “CRF analogs” (THE SALK INSTITUTE FOR BIOLOGICAL STUDIES, priority 1984, dated 1985)
Square brackets hold non-standard residues; d marks the D form. Peptide text beside a SMILES is read from it. Nle = CCCC[C@H](N)C(=O)O

Key:
[1] = target: T1, cultured rat pituitary cells (Rattus norvegicus, UniProt P35353); experiment: Stimulation of ACTH and β-endorphin secretion by cultured rat pituitary cells (general procedure of Example III); format: cell-based; conditions: for secretion of ACTH and β-END-LI: general procedure of Example III
T1 sequence (P35353 24-415): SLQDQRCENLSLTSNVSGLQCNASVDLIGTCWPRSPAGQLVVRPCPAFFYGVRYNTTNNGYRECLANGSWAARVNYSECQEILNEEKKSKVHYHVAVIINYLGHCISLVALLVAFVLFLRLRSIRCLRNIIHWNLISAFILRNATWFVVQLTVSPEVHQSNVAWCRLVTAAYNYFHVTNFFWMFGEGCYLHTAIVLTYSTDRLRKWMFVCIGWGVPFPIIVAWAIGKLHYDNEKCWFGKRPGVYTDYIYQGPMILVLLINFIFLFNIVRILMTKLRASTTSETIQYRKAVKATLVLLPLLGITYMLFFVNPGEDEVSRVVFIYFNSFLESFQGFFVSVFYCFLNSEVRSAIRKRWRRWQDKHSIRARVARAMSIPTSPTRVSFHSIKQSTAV
Procedure: The synthetic peptide AHC and oCRF were examined for their effects on the secretion of ACTH and B-endorphin in vitro and was also in vivo. The potency of synthetic oCRF to stimulate the secretion of ACTH and β-endorphin by cultured rat pituitary cells was measured using the procedure as generally set forth in Endocrinology, 91, 562 (1972). […] In.vivo testing is carried out using the general procedure set forth in C. Rivier et al., Science, 218, 377 (1982).

[2] = Lowering of blood pressure, in vivo testing by the general procedure of Example III

## H-SEEPPISLELTFHLLREVLE[Nle]ARAEQLAEQAHLNRKLMEII-NH2 [[Glu^9, Nle^21, Glu^29, Leu^33]-rCRF]
[1]
  secretion of ACTH and β-END-LI: stimulates
[2]
  lowering of blood pressure: very significant lowering of blood pressure to a greater extent than rCRF

## CC[C@H](C)[C@H](NC(=O)[C@H](CCC(=O)O)NC(=O)[C@H](CC(=O)O)NC(=O)[C@H](CCSC)NC(=O)[C@H](CC(C)C)NC(=O)[C@H](CCCCNC(=N)N)NC(=O)[C@H](CCCNC(=N)N)NC(=O)[C@H](CC(N)=O)NC(=O)[C@H](CC(N)=O)NC(=O)[C@H](C)NC(=O)[C@H](C)NC(=O)[C@H](CCC(N)=O)NC(=O)[C@H](CCC(N)=O)NC(=O)[C@H](CCCCN)NC(=O)[C@H](CC(C)C)NC(=O)[C@H](CCCCN)NC(=O)[C@H](CCC(=O)O)NC(=O)[C@H](CCC(N)=O)NC(=O)[C@H](CCCCN)NC(=O)[C@H](CCC(=O)O)NC(=O)[C@@H](NC(=O)[C@H](CCC(=O)O)NC(=O)[C@@H](NC(=O)[C@H](CCSC)NC(=O)[C@H](CCCCN)NC(=O)[C@H](CCCNC(=N)N)NC(=O)[C@H](CC(C)C)NC(=O)[C@H](CC(C)C)NC(=O)[C@H](CCC(=O)O)NC(=O)[C@H](CC(C)C)NC(=O)[C@H](CO)NC(=O)[C@H](CC(C)C)NC(=O)[C@H](CC(=O)O)NC(=O)[C@@H](NC(=O)[C@H](CO)NC(=O)[C@@H](NC(=O)[C@@H]1CCCN1C(=O)[C@@H]1CCCN1C(=O)CNC(=O)[C@@H]1CCC(=O)N1)[C@@H](C)CC)[C@@H](C)CC)[C@@H](C)CC)[C@@H](C)CC)C(N)=O [[Leu^26, Har^35, Met, Glu^39]-sauvagine]
[1]
  secretion of ACTH and β-END-LI: stimulates
[2]
  lowering of blood pressure: very significant lowering of blood pressure

## CC[C@H](C)[C@H](NC(=O)[C@H](CC(=O)O)NC(=O)[C@H](CC(C)C)NC(=O)[C@H](CC(C)C)NC(=O)[C@H](CCCCN)NC(=O)[C@H](CCCNC(=N)N)NC(=O)[C@H](CC(N)=O)NC(=O)[C@H](CO)NC(=O)[C@H](Cc1c[nH]cn1)NC(=O)[C@H](C)NC(=O)[C@H](CCC(N)=O)NC(=O)[C@H](CCC(N)=O)NC(=O)[C@H](C)NC(=O)[C@H](CC(C)C)NC(=O)[C@H](CCC(N)=O)NC(=O)[C@H](CC(=O)O)NC(=O)[C@H](C)NC(=O)[C@H](CCCCN)NC(=O)[C@H](CC(=O)O)NC(=O)[C@H](CCSC)NC(=O)[C@H](CCC(=O)O)NC(=O)[C@H](CC(C)C)NC(=O)[C@@H](NC(=O)[C@H](CCC(=O)O)NC(=O)[C@H](CCCNC(=N)N)NC(=O)[C@H](CC(C)C)NC(=O)[C@H](CC(C)C)NC(=O)[C@H](Cc1c[nH]cn1)NC(=O)[C@H](Cc1ccccc1)NC(=O)[C@@H](NC(=O)[C@H](CC(C)C)NC(=O)[C@H](CC(=O)O)NC(=O)[C@H](CC(C)C)NC(=O)[C@H](CO)NC(=O)[C@@H](NC(=O)[C@H]1CCCN1)[C@@H](C)CC)[C@@H](C)O)C(C)C)C(=O)N[C@@H](C)C(N)=O [[D-Pro^4,Asp^22]-oCRF(4-41)] (H-[dP]ISLDLTFHLLREVLEMDKADQLAQQAHSNRKLLDIA-NH2)
[1]
  secretion of ACTH and β-END-LI: stimulates
[2]
  lowering of blood pressure: very significant lowering of blood pressure

## H-SQEPPISLDLTFHLLREVLEMTRADQLAQQAHSNRRLLDIA-NH2 [[Arg^23,36]-oCRF]
[2]
  lowering of blood pressure: very significant lowering of blood pressure

## H-SQE[dP]PISLDLTFHLLRE[Nle]LE[Nle]AKAEQEAEQAALNRLLLEEA-NH2 [[D-Pro^4, Nle^18,21]-AHC]
[1]
  secretion of ACTH and β-END-LI: stimulates
[2]
  lowering of blood pressure: very significant lowering of blood pressure

## CCCC[C@H](NC(=O)[C@H](CCC(=O)O)NC(=O)[C@H](CC(C)C)NC(=O)[C@H](CCCC)NC(=O)[C@H](CCC(=O)O)NC(=O)[C@H](CCCNC(=N)N)NC(=O)[C@H](CC(C)C)NC(=O)[C@H](CC(C)C)NC(=O)[C@H](Cc1c[nH]cn1)NC(=O)[C@H](Cc1ccccc1)NC(=O)[C@@H](NC(=O)[C@H](CC(C)C)NC(=O)[C@H](CC(=O)O)NC(=O)[C@H](CC(C)C)NC(=O)[C@H](CO)NC(=O)[C@@H](NC(=O)[C@@H]1CCCN1C(=O)[C@H]1CCCN1C(=O)[C@H](N)Cc1ccc(O)cc1)[C@@H](C)CC)[C@@H](C)O)C(=O)N[C@@H](C)C(=O)N[C@@H](CCCCN)C(=O)N[C@@H](C)C(=O)N[C@@H](CCC(=O)O)C(=O)N[C@@H](CCC(N)=O)C(=O)N[C@@H](CCC(=O)O)C(=O)N[C@@H](C)C(=O)N[C@@H](CCC(=O)O)C(=O)N[C@@H](CCC(N)=O)C(=O)N[C@@H](C)C(=O)N[C@@H](C)C(=O)N[C@@H](CC(C)C)C(=O)N[C@@H](CC(N)=O)C(=O)N[C@@H](CCCNC(=N)N)C(=O)N[C@@H](CC(C)C)C(=O)N[C@@H](CC(C)C)C(=O)N[C@@H](CC(C)C)C(=O)N[C@@H](CCC(=O)O)C(=O)N[C@@H](CCC(=O)O)C(=O)N[C@@H](C)C(N)=O [[D-Tyr^3, D-Pro^4, Nle^18,21]-AHC(3-41)] (H-[dY][dP]PISLDLTFHLLRE[Nle]LE[Nle]AKAEQEAEQAALNRLLLEEA-NH2)
[2]
  lowering of blood pressure: very significant lowering of blood pressure

## CCCC[C@H](NC(=O)[C@H](CCC(=O)O)NC(=O)[C@H](CC(C)C)NC(=O)[C@H](CCCC)NC(=O)[C@H](CCC(=O)O)NC(=O)[C@H](CCCNC(=N)N)NC(=O)[C@H](CC(C)C)NC(=O)[C@H](CC(C)C)NC(=O)[C@H](Cc1c[nH]cn1)NC(=O)[C@H](Cc1ccccc1)NC(=O)[C@@H](NC(=O)[C@H](CC(C)C)NC(=O)[C@H](CC(=O)O)NC(=O)[C@H](CC(C)C)NC(=O)[C@H](CO)NC(=O)[C@@H](NC(=O)[C@@H]1CCCN1C(=O)[C@H]1CCCN1)[C@@H](C)CC)[C@@H](C)O)C(=O)N[C@@H](C)C(=O)N[C@@H](CCCCN)C(=O)N[C@@H](C)C(=O)N[C@@H](CCC(=O)O)C(=O)N[C@@H](CCC(N)=O)C(=O)N[C@@H](CCC(=O)O)C(=O)N[C@@H](C)C(=O)N[C@@H](CCC(=O)O)C(=O)N[C@@H](CCC(N)=O)C(=O)N[C@@H](C)C(=O)N[C@@H](C)C(=O)N[C@@H](CC(C)C)C(=O)N[C@@H](CC(N)=O)C(=O)N[C@@H](CCCNC(=N)N)C(=O)N[C@@H](CC(C)C)C(=O)N[C@@H](CC(C)C)C(=O)N[C@@H](CC(C)C)C(=O)N[C@@H](CCC(=O)O)C(=O)N[C@@H](CCC(=O)O)C(=O)N[C@@H](C)C(N)=O [[D-Pro^4, Nle^18,21]-AHC(4-41)] (H-[dP]PISLDLTFHLLRE[Nle]LE[Nle]AKAEQEAEQAALNRLLLEEA-NH2)
[2]
  lowering of blood pressure: very significant lowering of blood pressure

## H-SQEPPISLDLTFHLLREMLEMAKAEQEAEQAALNRLLLEEA-NH2 [AHC]
[1]; maximal (1-5 nM) concentrations
  secretory response to maximal concentrations: at a plateau level
